Source: US20200023036A1, “PHARMACEUTICAL COMPOSITION FOR PREVENTING OR TREATING INFLAMMATORY RESPIRATORY DISEASE CONTAINING FUSION PROTEIN IN WHICH CELL-PENETRATING PEPTIDE AND CTCTLA4 PEPTIDE ARE FUSED AS ACTIVE INGREDIENT” (IUCF-HYU (INDUSTRY-UNIVERSITY COOPERATION FOUNDATION HANYANG, priority 2017, published 2020)

How the values were obtained:
[1] = tested on: GCE-induced allergic asthma animal model; assay: Airway hyperresponsiveness (AHR) to methacholine in GCE-induced allergic asthma animal model (Test Example 2); type: in vivo, BALB/c mice; conditions: 10 μg intranasal together with GCE twice a week for 3 weeks; measured on day 21
Protocol: The mice reared according to the method of 1) were used. Specifically, the 8-week-old BALB/c mice were sensitized by intranasal administration of PBS (sham) or 120 μg of GCE prepared according to the method of 2) twice a week for 3 weeks.
AHR was measured 4 days after the last GCE administration using a flexiVent 5.1 small-animal ventilator (SCIREQ, Montreal, PQ, Canada). The mice were placed in a whole body plethysmograph (Buxco, USA) and 0.4 mL of methacholine solutions at various concentrations (3.1, 6.25, 12.5, 25 or 50 mg/mL) in aerosols were administered through inhalation for 10 seconds. Penh was measured 1 minute and 2 minutes after the administration and the mean value was determined as the Penh (enhanced pause) value for the corresponding methacholine administration dosage.
The mice reared according to 1) of Experimental methods were used. Specifically, PBS (sham) or 120 μg of GCE prepared according to 2) of Experimental methods was intranasally administered to the 8-week-old BALB/c mice twice a week for 3 weeks. […] On day 21, the mice were anesthetized and hyperresponsiveness to methacholine (MeCh) was measured (see 4) of Experimental methods).
The mice reared according to 1) of Experimental methods were used. […]
On day 21, the animals were anesthetized and hyperresponsiveness to methacholine (MeCh) was measured (see 4) of Experimental methods).

IL-13, IL-4 and IFN-γ = assay: Cytokine expression by ELISA in bronchoalveolar lavage and lung tissues, comparison with CTLA4-Ig (Test Example 5); type: in vivo, BALB/c mice; conditions: 10 μg intranasal together with GCE
Protocol: (§1) The mice reared according to 1) of Experimental methods were used. Specifically, 120 μg of GCE prepared according to 2) of Experimental methods was intranasally administered to the 8-week-old BALB/c mice twice a week for 3 weeks.
(standard error of mean). *p<0.05, **p<0.01.

[2] = tested on: GCE-induced allergic asthma animal model; assay: Lung tissue observation with PAS and Masson's trichrome stain in GCE-induced allergic asthma animal model (Test Example 3); type: in vivo, BALB/c mice; conditions: 10 μg intranasal together with GCE
Protocol: The lung was fixed in a 10% formalin solution for a day and tissues were prepared as paraffin blocks and sectioned to 3- to 4-μm thickness using a microtome. The prepared slides were stained with PAS (periodic acid-Schiff) stain or Masson's trichrome stain.
To evaluate the inhibitory effect of the dNP2-ctCTLA-4 fusion protein on the pathophysiology of lungs in the GCE-induced allergic asthma animal model, the lung tissues of each test group and control group of Test Example 2 was observed according to 7) of Experimental methods.
The lung tissue of each test group and control group of Test Example 3 was imaged after staining with PAS. The red region indicates mucus-secreting goblet cells.
The lung tissues of each test group and control group of Test Example 3 were imaged after staining with Masson's trichrome stain. The blue region indicates collagen deposition and fibrosis.

[3] = tested on: naive CD4 T cells differentiated into Th2 cells; assay: Th2 differentiation assay (Test Example 6); type: cell-based, BALB/c mice; conditions: 1 μM for 6 days; anti-CD3/CD28, IL-4; flow cytometry
Protocol: Mouse naive CD4 T cells were isolated from the 8-week-old BALB/c mice by magnetic-activated cell sorting (MACS, naive CD4 T cell isolation kit, mouse, Miltenyi, Bergisch Gladbach, Germany).
Then, 2.5×10^5 of the isolated cells were seeded onto anti-CD3/anti-CD28 antibody (0.1 μg/mL)-coated 96-well plates. The cells were incubated in the presence of anti-IFN-γ neutralizing antibody (5 μg/mL), IL-2 (50 U/mL), IL-4 (30 ng/mL) and PBS. After adding 1 μM dNP2-EGFP (Comparative Example 3) or 1 μM dNP2-ctCTLA-4 (Example 2) to each well for 6 days, the cells were analyzed by flow cytometry after re-stimulation, protein transport inhibitor treatment and intracellular staining with anti-mouse IFN-γ-FITC and anti-mouse IL-4-PE FACS antibodies.
The experiment was conducted according to 8) of Experimental methods.
MACS-sorted CD4^+ CD62L^hiCD44^− native CD4 T cells isolated from 8-week-old BALB/c mice were used. They were differentiated into Th2 cells by addition of IL-4 during activation with anti-CD3/CD28 antibodies for 6 days.
The result is presented as mean±s.e.m. (standard error of mean) (n=3). **p<0.01. NA (non-activated) denotes a negative control group, not stimulated by cytokines or anti-TcR antibody.

[4] = tested on: GCE-induced allergic asthma animal model; assay: H&E lung tissue observation and airway epithelial thickness, comparison with CTLA4-Ig (Test Example 5); type: in vivo, BALB/c mice
[5] = tested on: IL-5, IL-13, IL-4 and IFN-γ; assay: Cytokine expression by ELISA in bronchoalveolar lavage and lung tissues (Test Example 4); type: in vivo, BALB/c mice; conditions: 10 μg intranasal together with GCE
Protocol: The […] obtained by the method of 5) was homogenized using the T-PER tissue protein extraction reagent (Thermo Fisher Scientific, MA, US) to prepare a suspension. The suspension was incubated at 4° C. for 30 minutes and then centrifuged at 2500 rpm for 10 minutes. The supernatant was filtered with a 0.45-μm filter to analyze cytokine expression levels.
as §1, with “weeks. 10 μg of dNP2-ctCTLA-4 (Example 2), dNP2-EGFP (Comparative Example 3) or a vehicle (PBS) was intranasally administered together when the GCE was administered to the mice.” for “weeks.”
The concentration of IL-5, IL-13, IL-4 and IFN-γ was analyzed with the ELSISA kit and the result was normalized to the total protein concentration of the tissue. The protein concentration was quantified by the Bradford assay. n=5 per each group and the results are presented as mean±s.e.m. (standard error of mean). *p<0.05, **p<0.01.
In this experiment, the bronchoalveolar lavage (BAL) and lung tissues were recovered from each test group and control group and the expression level of IL-13, IL-4 and Th2 cytokines was compared.

[6] = tested on: GCE-induced allergic asthma animal model; assay: Cell number and immune cell distribution in bronchoalveolar lavage fluid (Test Example 4); type: in vivo, BALB/c mice; conditions: 10 μg intranasal together with GCE; versus GCE-administered PBS test group
Protocol: In order to collect the bronchoalveolar lavage fluid, the mouse lungs were washed with 1 mL of HBSS (Hank's balanced salt solution) with an intubated tube fluid. Total cells in the lavage fluid were counted with a hemocytometer. Then, the lavage fluid was centrifuged and the cells were prepared on slides after centrifugation at 1000 rpm for 3 minutes. The slides were stained with a Hemacolor staining kit (Merck Millipore, Darmstadt, Germany). The cells were differentially counted until the total counted number reached at least 200 according to the standard hemocytologic procedures to count macrophages and eosinophils.
Experimental conditions were designed as in Test Example 2. A bronchoalveolar lavage fluid was obtained from each test group and control group of Test Example 2 and the inhibitory effect of eosinophil infiltration and Th2 cytokine production was investigated. The details of the design of experiments are as follows.
as §1, with “weeks. 10 μg of dNP2-ctCTLA-4 (Example 2), dNP2-EGFP (Comparative Example 3) or a vehicle (PBS) was intranasally administered together when the GCE was administered to the mice.” for “weeks.”
15 minutes after the experiment was completed, a bronchoalveolar lavage fluid (BALF) was obtained by injecting 1 mL of PBS twice to each animal (see 5) of Experimental methods).

dNP2-ctCTLA-4: fusion protein: cell-penetrating peptide dNP2 (SEQ ID NO 1) linked to the N-terminal of the ctCTLA-4 peptide (SEQ ID NO 2) (KIKKVKKKGRKGSKIKKVKKKGRKKMLKKRSPLTTGVYVKMPPTEPECEKQFQPYFIPIN; Synthetic peptide sequence, dNP2 peptide; Synthetic peptide sequence, ctCTLA-4 peptide)
airway hyperresponsiveness to methacholine (airway resistance and airway elastance) [1]: significantly reduced airway hyperresponsiveness
levels of IL-13 and IFN-γ in the bronchoalveolar lavage (BAL) and lung tissues (IL-13, IL-4 and IFN-γ): significantly decreased levels of IL-13 and IFN-γ
fibrotic area around the bronchial regions (Masson's trichrome stain) [2]: significantly reduced fibrotic area
inflammatory cells and goblet cells in the lungs (PAS stain) [2]: significantly reduced inflammatory cells and goblet cells
cytokine production (IL-4 and/or IL-13-producing CD4 T cells) in Th2 differentiation [3]: significantly reduced cytokine production
physiological features of the respiratory epithelium: cell infiltration and airway epithelium thickening (H&E) ([4]; 10 μg intranasal together with GCE): improved physiological features of the respiratory epithelium
pharmacological effect relative to the existing CTLA4-Ig ([4]; intranasal administration, GCE-induced allergic asthma animal model): 2-3 times
level of IFN-γ ([5]; ELISA): decreased level of IFN-γ
decreased expression levels of IL-5, IL-13, IL-4 and IFN-γ in lung tissues ([5]; ELISA normalized to total protein, versus PBS test group): > 2 times
decreased expression levels of IL-5, IL-13, IL-4 and IFN-γ in the bronchoalveolar lavage (BAL) ([5]; ELISA, versus PBS test group): more than 3 times
decrease in the number of eosinophils in the bronchoalveolar lavage (BAL) [6]: ≥ 3 times
decrease in the number of macrophages in the bronchoalveolar lavage (BAL) [6]: ≥ 3 times
decrease in the number of total cells in the bronchoalveolar lavage (BAL) [6]: ≥ 3 times
